Results published in patent publication US8080668B2, “Thiazoles derivatives as AMPK activator” (Dr. Reddy's Laboratories Limited, priority 2005, dated 2011).

How the values were obtained:
AMPK [1] = assay: AMPK activation potential, cell based ELISA with p-AMPK specific antibody, L6 skeletal muscle cells; settings: 10 μM compound, 24 hours, normalized to metformin at 2 mM = 100%
Method: (§1) The AMPK activation potential percentages in this specification are calculated with respect to the already known AMPK activator metformin. The percentages are obtained by normalizing the values obtained at concentrations in the range of 2 μM to 10 μM with that of metformin by considering the values obtained for metformin at 2 mM concentrations as 100%. However, the AMPK activation potential percentages can also be calculated with respect to other known AMPK activators also.
(§2) AMPK activation potential of the compounds of formula (I) was evaluated using a cell based ELISA approach. L6 muscle skeletal muscle and Hep G2 hepatoma liver cells were cultured for 48 hours prior to drug addition at various concentrations. Twenty four hours later, the cells were fixed and the ELISA plate developed following standard protocol using p-AMPK specific antibody.
(§3) Various cell lines such as HepG2 and L6 were revived from glycerol stocks (ATCC). The cells were maintained in a T 75 culture flask-containing medium (DMEM +10% fetal calf serum). On reaching a confluence of 70% to 80%, the cells were seeded in a 96 well plate at a density of 10×10^3 cells per well in DMEM +10% FCS medium. The plates were then incubated at 37° C. with 5% CO2 for 48 hours. Various concentrations of drugs were prepared in DMSO and diluted to required concentration with the medium and incubated at 37° C. with 5% CO2 for 24 hours. Cells were fixed with 4% formaldehyde in PBS for 30 minutes at 25-35° C. and washed three times with PBS containing 0.1% Triton X-100. Endogenous peroxidase was quenched with 0.6% H2O2 in PBS-T for 30 minutes and washed three times in PBS-T. The cells were then blocked with 10% FCS in PBS-T for 1hour. The cells were incubated for 8-12 hours with various concentrations of primary antibody in PBS-T containing 5% BSA at 4° C., followed by washing three times with PBS-T for 5 minutes and incubating with a secondary antibody (HRP conjugated 1:500 in PBS-T with 5% BSA for 1 hour at 25-35° C. The cells were washed three times with PBS-T for 5 minutes and twice with PBS and incubated with 100 μl TMB/H2O2 color developing solution for 15 minutes. The reaction was stopped with 50 μl of 1M H2SO4. The plate was then read at 460 nm using ELISA plate reader.
(§4) AMPK activation percentages for various compounds are given in the table below (AMPK activation potential percentages are obtained by normalizing the values obtained at 10 μM concentration with that of metformin by considering the values obtained for metformin at 2 mM concentrations as 100%).

AMPK [2] = assay: AMPK activation potential, cell based ELISA with p-AMPK specific antibody, Hep G2 hepatoma liver cells; settings: 10 μM compound, 24 hours; normalized to metformin at 2 mM = 100%; HepG2 cells
Method: as §1, §2, §3, §4

Row | Compound | AMPK % activation (at 10 μM) L6 skeletal muscle cells (AMPK [1]) | AMPK % activation (at 10 μM) HepG-2 hepatoma liver cells (AMPK [2]) | melting point
1 | O=C(O)Cc1csc(Nc2ccc(Oc3ccc(Cl)cc3)cc2)n1 [Example 1-k, {2-[4-(4-Chloro-phenoxy)-phenylamino]-thiazol-4-yl}-acetic acid] | 96.19% | 97.56% | 192 to 193 °C
2 | O=C(O)Cc1csc(Nc2ccc(-c3csc(-c4ccc(C(F)(F)F)cc4)n3)cc2)n1 [Example 1-l, (2-{4-[2-(4-Trifluoromethyl-phenyl)-thiazol-4-yl]-phenylamino}-thiazol-4-yl)-acetic acid] | 104.37% | 85.27% | 171 to 174 °C
3 | CCCCc1ccc(Nc2nc(CC(=O)O)cs2)cc1 [Example 1-p, [2-(4-Butyl-phenylamino)-thiazol-4-yl]-acetic acid] | 102.26% | 75.77% | 
4 | O=C(O)Cc1csc(Nc2ccc(Sc3ccc(Cl)cc3)cc2)n1 [Example 1-j, {2-[4-(4-Chloro-phenylsulfanyl)-phenylamino]-thiazol-4-yl}-acetic acid] | 97.09% | 97.56% | 191 to 192 °C
5 | O=C(O)Cc1csc(Nc2ccc(-c3csc(-c4ccccc4)n3)cc2)n1 [Example 1-m, {2-[4-(2-Phenyl-thiazol-4-yl)-phenylamino]-thiazol-4-yl}-acetic acid] |  |  | 148 to 150 °C
6 | O=C(O)Cc1csc(Nc2ccc(-c3ccccc3)cc2)n1 [Example 1-o, [2-(Biphenyl-4-ylamino)-thiazol-4-yl]-acetic acid] |  |  | 158 to 159 °C
7 | O=C(O)Cc1csc(Nc2ccc(Cl)cc2)n1 [Example 1-b, [2-(4-Chloro-phenylamino)-thiazol-4-yl]-acetic acid] | 102.63% | 87.11% | 
8 | Cc1nc(-c2ccc(Nc3nc(C(=O)O)cs3)cc2)cs1 [Example 2-b, 2-[4-(2-Methyl-thiazol-4-yl)-phenylamino]-thiazole-4-carboxylic acid] |  |  | 290 to 292 °C
9 | O=C(O)c1csc(Nc2ccc(-c3csc(-c4ccccc4)n3)cc2)n1 [Example 2-c, 2-[4-(2-Phenyl-thiazol-4-yl)-phenylamino]-thiazole-4-carboxylic acid] | 102.19% | 96.35% | 283 to 286 °C
10 | O=C(O)Cc1csc(Nc2ccc(OC(F)(F)F)cc2)n1 [Example 1-e, [2-(4-Trifluoromethoxy-phenylamino)-thiazol-4-yl]-acetic acid] | 94.09% | 100.29% | 
11 | O=C(O)c1csc(Nc2ccc(-c3csc(-c4ccc(C(F)(F)F)cc4)n3)cc2)n1 [Example 2-d, 2-{4-[2-(4-Trifluoromethyl-phenyl)-thiazol-4-yl]-phenylamino}-thiazole-4-carboxylic acid] | 109.70% | 83.89% | 
12 | Cc1nc(-c2ccc(Nc3nc(CC(=O)O)cs3)cc2)cs1 [Example 1-n, {2-[4-(2-Methyl-thiazol-4-yl)-phenylamino]-thiazol-4-yl}-acetic acid] | 83.62% | 98.42% | 153 to 156 °C
13 | O=C(O)Cc1csc(Nc2ccc(N3CCOCC3)cc2)n1 [Example 1-i, [2-(4-Morpholin-4-yl-phenylamino)-thiazol-4-yl]-acetic acid] | 109.09% | 69.71% | 198 to 199 °C
14 | O=C(O)Cc1csc(Nc2ccc(O)cc2)n1 [Example 1-s, [2-(4-Hydroxy-phenylamino)-thiazol-4-yl]-acetic acid] | 92.35% | 86.08% | 
15 | Cc1ccc(Nc2nc(CC(=O)O)cs2)cc1 [Example 1-d, (2-p-Tolylamino-thiazol-4-yl)-acetic acid] | 99.55% | 97.11% | 
16 | O=C(O)Cc1csc(Nc2ccc(OCc3ccccc3)cc2)n1 [Example 1-f, [2-(4-Benzyloxy-phenylamino)-thiazol-4-yl]-acetic acid] | 88.04% | 87.76% | 116 to 118 °C
17 | O=C(O)c1csc(Nc2ccc(Cl)cc2)n1 [Example 2-a, 2-(4-Chloro-phenylamino)-thiazole-4-carboxylic acid] | 94.90% | 97.26% | 
18 | O=C(O)Cc1csc(Nc2ccc(F)cc2)n1 [Example 1-a, [2-(4-Fluoro-phenylamino)-thiazol-4-yl]-acetic acid] | 81% | 97.9% | 
19 | O=C(O)CCc1csc(Nc2ccc(C(F)(F)F)cc2)n1 [Example 3-e, 3-[2-(4-Trifluoromethyl-phenylamino)-thiazol-4-yl]-propionic acid] | 94.72% | 110.47% | 
